We go through 2 compounds from patent publication EP1976513B1 (priority 2006, dated 2007).

Read-outs that look alike come from different tables or passages of the source.

Experiment [1] concerns the target T1, 5-HT Transporter (SERT) Sites in Mouse Brain (Mus musculus, UniProt Q60857).
T1 construct: Whole brains were removed and cortex and striata dissected out; from tissue; host or cells: C57BL/6 mouse frontal cortex homogenate
Kind of experiment: Ex vivo [3H] citalopram binding after oral dosing. On the set-up: species or system C57BL/6 mice. To be noted: for % Transporter Occupancy, SERT: 60 minutes after treatment, vs vehicle; for Mean Specific Binding (dpm) ± S.E.M., SERT: mice sacrificed 60 minutes after treatment, cortex.

Experiment [2] has as its system mice. Briefly: Mouse locomotor activity. Note: unit not given here. In kind it is in vivo. To be noted: PO. Summed up: (§1)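 Animals pretreated with vehicle or compound, then placed individually in photocell cages. Horizontal and vertical activity recorded in 5-min bins for up to 60 min. Analysed by one-way ANOVA with post-hoc tests.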
The subject of experiment [3] is Rats. Briefly: Rat forced swim test. Type of experiment: in vivo. As to conditions: PO, 24 hours and 30-60 minutes before the 5 minute test.
Experiment [4] addresses T2, serotonin transporter (Rattus norvegicus, UniProt P31652).
T2 construct: synaptosomes isolated in a 0.32M sucrose buffer from a male Wistar rat cortex; from tissue; host or cells: male Wistar rat cortex synaptosomes
Kind of experiment: biochemical. As to conditions: Rat IC50 (nM) rSERT, rat synaptosomes, serotonin transporter (SERT).

For experiment [5], the target named is T3, DA Transporter (DAT) Sites in Mouse Brain (Mus musculus, UniProt Q61327).
T3 construct: Striatum was used to determine occupancy of DA transporter sites; from tissue; host or cells: C57BL/6 mouse striatum homogenate
Briefly: Ex vivo [3H] WIN 35428 binding after oral dosing. The arrangement: species or system C57BL/6 mice. As to conditions: for % Transporter Occupancy, DAT: 60 minutes after treatment, vs vehicle; for Mean Specific Binding (dpm) ± S.E.M., DAT: mice sacrificed 60 minutes after treatment, striatum.

In experiment [6] the test system is mice. Kind of experiment: Mouse tail suspension test. In kind it is in vivo. To be noted: PO, 30-60 minutes before the test, 5 minutes recording.
For experiment [7], the target named is Norepinephrine Transporter (NET) Sites in Mouse Brain (Mus musculus, UniProt O55192). As to conditions: PO; for % Transporter Occupancy, NET: 60 minutes after treatment, vs vehicle; for Mean Specific Binding (dpm) ± S.E.M., NET: mice sacrificed 60 minutes after treatment, cortex.
Experiment [8] deals with T4, dopamine transporter (Rattus norvegicus, UniProt P23977).
T4 construct: synaptosomes isolated in a 0.32 M sucrose buffer from a male Wistar rat striatum; from tissue; host or cells: male Wistar rat striatum synaptosomes
Kind of experiment: biochemical. To be noted: Rat IC50 (nM) rDAT, rat synaptosomes, dopamine transporter (DAT).

Experiment [9] deals with Rats. Briefly: Rat locomotor activity. In kind it is in vivo. As to conditions: PO. The gist of the method:
as §1

Experiment [10] has as its target T5, norepinephrine transporter (Rattus norvegicus, UniProt Q63380).
T5 construct: synaptosomes isolated in a 0.32 M sucrose buffer from a male Wistar rat hypothalamus; from tissue; host or cells: male Wistar rat hypothalamus synaptosomes
Briefly: biochemical. In kind it is biochemical. To be noted: Rat IC50 (nM) rNET, rat synaptosomes, norepinephrine transporter (NET).

Experiment [11] has as its target serotonin uptake sites (Homo sapiens, UniProt P31645). To be noted: compared with the racemic compound; U.S. Patent No. 6,372,919; cited from earlier work.
For experiment [12] the following is noted: literature; cited from earlier work.

T1 sequence (Q60857 whole entry): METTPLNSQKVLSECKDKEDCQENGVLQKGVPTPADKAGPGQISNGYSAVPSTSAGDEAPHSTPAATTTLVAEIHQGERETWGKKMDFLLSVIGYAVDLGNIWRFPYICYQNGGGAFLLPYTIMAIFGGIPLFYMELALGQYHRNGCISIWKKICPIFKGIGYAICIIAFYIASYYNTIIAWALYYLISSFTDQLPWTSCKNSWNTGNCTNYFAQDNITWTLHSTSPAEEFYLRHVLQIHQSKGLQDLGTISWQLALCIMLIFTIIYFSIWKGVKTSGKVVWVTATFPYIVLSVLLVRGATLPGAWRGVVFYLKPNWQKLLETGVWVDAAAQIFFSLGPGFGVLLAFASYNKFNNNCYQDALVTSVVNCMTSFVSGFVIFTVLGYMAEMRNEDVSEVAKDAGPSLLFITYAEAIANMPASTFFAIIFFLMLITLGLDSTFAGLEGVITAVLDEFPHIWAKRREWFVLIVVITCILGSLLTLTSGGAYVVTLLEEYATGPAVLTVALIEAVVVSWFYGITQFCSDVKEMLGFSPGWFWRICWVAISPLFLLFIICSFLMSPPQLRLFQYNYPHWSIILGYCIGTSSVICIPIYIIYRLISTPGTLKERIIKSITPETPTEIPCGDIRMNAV
T3 sequence (Q61327 whole entry): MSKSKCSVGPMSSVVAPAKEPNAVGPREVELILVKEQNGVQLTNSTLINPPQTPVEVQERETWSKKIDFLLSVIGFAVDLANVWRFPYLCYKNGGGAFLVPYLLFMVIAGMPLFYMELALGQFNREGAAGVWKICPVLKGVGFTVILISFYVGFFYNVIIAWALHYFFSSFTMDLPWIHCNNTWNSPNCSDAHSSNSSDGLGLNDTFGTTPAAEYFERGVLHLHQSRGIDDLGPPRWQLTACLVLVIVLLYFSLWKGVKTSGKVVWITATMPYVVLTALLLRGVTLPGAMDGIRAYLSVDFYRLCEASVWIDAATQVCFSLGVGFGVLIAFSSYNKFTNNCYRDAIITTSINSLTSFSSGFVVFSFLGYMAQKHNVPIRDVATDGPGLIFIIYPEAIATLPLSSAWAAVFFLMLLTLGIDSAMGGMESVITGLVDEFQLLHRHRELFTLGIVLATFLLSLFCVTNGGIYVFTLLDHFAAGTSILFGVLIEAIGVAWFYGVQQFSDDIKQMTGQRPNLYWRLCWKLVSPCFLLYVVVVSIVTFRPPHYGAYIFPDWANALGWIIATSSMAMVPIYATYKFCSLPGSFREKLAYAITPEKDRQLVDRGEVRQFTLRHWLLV
Sequence of Norepinephrine Transporter (NET) Sites in Mouse Brain (O55192 whole entry): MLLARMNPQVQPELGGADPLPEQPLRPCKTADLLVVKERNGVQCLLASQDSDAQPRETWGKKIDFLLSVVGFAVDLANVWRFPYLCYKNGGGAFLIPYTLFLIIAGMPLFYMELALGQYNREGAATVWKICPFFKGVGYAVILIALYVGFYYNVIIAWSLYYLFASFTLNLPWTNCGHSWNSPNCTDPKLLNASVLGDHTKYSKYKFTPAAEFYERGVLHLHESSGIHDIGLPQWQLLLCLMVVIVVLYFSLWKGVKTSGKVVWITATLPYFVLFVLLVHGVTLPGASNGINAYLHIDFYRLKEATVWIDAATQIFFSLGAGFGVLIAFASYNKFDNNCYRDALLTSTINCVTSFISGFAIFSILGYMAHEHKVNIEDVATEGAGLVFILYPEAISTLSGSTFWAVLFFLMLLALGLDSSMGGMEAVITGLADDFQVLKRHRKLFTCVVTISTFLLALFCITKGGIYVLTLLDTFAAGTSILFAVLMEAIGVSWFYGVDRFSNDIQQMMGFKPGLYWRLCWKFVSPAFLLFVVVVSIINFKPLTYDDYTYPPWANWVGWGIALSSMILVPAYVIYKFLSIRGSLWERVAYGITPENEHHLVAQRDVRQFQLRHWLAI
Sequence of serotonin uptake sites (P31645 whole entry): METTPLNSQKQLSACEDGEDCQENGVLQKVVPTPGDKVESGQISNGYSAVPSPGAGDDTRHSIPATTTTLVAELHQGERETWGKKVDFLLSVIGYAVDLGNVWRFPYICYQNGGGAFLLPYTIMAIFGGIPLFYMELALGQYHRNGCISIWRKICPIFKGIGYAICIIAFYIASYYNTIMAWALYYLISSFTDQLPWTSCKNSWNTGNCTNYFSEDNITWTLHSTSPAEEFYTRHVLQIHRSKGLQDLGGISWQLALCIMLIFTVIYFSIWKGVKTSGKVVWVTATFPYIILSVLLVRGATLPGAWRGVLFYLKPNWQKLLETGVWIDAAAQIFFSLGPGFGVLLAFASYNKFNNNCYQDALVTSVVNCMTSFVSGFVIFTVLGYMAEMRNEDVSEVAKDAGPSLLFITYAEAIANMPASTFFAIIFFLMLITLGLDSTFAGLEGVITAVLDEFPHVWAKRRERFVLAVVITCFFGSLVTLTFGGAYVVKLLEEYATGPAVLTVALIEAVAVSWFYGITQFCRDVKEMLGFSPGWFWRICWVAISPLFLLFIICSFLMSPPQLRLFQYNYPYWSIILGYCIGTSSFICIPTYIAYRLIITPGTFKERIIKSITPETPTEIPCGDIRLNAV
T4 sequence (P23977 whole entry): as the sequence (Q61327 whole entry) above, with P21S, V57A, S194A, R600H, V619L counted along it
T5 sequence (Q63380 1-617): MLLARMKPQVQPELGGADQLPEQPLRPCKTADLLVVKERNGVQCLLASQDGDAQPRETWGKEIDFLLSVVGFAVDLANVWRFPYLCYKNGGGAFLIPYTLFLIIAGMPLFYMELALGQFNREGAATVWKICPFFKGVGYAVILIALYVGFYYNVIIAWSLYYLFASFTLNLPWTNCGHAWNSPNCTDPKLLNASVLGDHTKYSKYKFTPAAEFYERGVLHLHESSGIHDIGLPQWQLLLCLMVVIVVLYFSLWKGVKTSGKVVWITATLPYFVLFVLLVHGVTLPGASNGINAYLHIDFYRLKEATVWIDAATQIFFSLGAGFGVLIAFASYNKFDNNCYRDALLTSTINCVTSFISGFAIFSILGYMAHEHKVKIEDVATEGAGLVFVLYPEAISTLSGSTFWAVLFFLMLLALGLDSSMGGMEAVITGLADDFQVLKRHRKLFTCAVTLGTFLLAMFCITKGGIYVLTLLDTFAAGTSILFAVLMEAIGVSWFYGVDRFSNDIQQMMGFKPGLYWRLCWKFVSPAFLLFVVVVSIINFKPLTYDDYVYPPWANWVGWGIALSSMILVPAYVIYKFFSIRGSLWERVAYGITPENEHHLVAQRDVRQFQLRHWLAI
T2 sequence (P31652 whole entry): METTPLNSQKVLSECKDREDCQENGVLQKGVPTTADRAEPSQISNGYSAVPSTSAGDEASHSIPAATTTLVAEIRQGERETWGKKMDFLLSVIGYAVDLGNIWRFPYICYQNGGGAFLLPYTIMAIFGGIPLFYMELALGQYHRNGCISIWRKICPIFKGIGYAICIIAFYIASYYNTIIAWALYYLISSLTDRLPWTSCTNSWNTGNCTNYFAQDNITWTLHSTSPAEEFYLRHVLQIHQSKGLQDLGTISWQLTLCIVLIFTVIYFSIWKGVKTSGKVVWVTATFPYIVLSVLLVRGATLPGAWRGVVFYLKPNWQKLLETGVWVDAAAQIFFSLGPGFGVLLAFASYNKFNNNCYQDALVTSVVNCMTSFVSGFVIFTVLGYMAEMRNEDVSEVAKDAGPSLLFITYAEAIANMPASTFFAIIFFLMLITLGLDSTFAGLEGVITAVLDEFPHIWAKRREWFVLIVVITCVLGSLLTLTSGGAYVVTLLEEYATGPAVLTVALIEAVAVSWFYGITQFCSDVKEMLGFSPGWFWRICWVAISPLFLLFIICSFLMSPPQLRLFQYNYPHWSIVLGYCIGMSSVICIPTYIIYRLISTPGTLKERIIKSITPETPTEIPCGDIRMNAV

In the case of `CC(N(C)C)C1(c2ccc3ccccc3c2)CCCCC1` (single isomer, unassigned) [56 E1, N,N-dimethyl-1-(1-(naphthalen-2-yl)cyclohexyl)ethanamine], the “% Transporter Occupancy, SERT” value in experiment [1] (1 mg/kg) is on record as 19%; in experiment [1] (3 mg/kg), 58%; in [1] (10 mg/kg), 91%; in experiment [1] (30 mg/kg), 95%. Besides, the “Mean Specific Binding (dpm) ± S.E.M., SERT” value in experiment [1] (1 mg/kg) is reported as 2625 ± 138 dpm; in experiment [1] (3 mg/kg), 1346 ± 109 dpm; in experiment [1] (10 mg/kg), 278 ± 42 dpm; in experiment [1] (30 mg/kg) it was 151 ± 60 dpm. The “Mouse Locomotor Activity Total Distance Traveled ± S.E.M.” value in experiment [2] (3 mg/kg) was 410.2 ± 89.3; in experiment [2] (10 mg/kg), 440.2 ± 62.6; in experiment [2] (30 mg/kg) it was 252.2 ± 55.8. Also, the results for the “Rat Forced Swim (Means ± S.E.M.) Climbing” value in [3] (3 mg/kg), in experiment [3] (10 mg/kg) and in experiment [3] (30 mg/kg) were 7.1 ± 1.6, 8.6 ± 0.9 and 17.9 ± 2.4, respectively. Besides, the “Rat Forced Swim (Means ± S.E.M.) Immobility” value in experiment [3] (3 mg/kg) was found to be 52.2 ± 1.6; in experiment [3] (10 mg/kg) it was 50.7 ± 1.0; in experiment [3] (30 mg/kg), 40.4 ± 2.7. Also, the “Rat Forced Swim (Means ± S.E.M.) Swimming” value in experiment [3] (3 mg/kg) turned out to be 0.3 ± 0.2; in [3] (10 mg/kg), 0.8 ± 0.3; in experiment [3] (30 mg/kg), 1.0 ± 0.4. Also, the IC50 in [4] is 2.9 nM; in [8], 24 nM; in experiment [10], 2.3 nM. Also, the “% Transporter Occupancy, DAT” value in [5] (1 mg/kg) worked out at 5%; in experiment [5] (3 mg/kg), 4%; in [5] (10 mg/kg) it was 23%; in experiment [5] (30 mg/kg) it was 67%. The “Mean Specific Binding (dpm) ± S.E.M., DAT” value was found to be 41561 ± 1611 dpm in experiment [5] (1 mg/kg), 42127 ± 2130 dpm in experiment [5] (3 mg/kg), 33478 ± 1779 dpm in experiment [5] (10 mg/kg) and 14637 ± 1567 dpm in [5] (30 mg/kg). Besides, the results for the “Mouse Tail Suspension Mean Immobility Time ± S.E.M.” value in [6] (3 mg/kg), in [6] (10 mg/kg) and in experiment [6] (30 mg/kg) were 184.0 ± 4.8, 174.8 ± 6.1 and 141.9 ± 7.4, respectively. Besides, the “% Transporter Occupancy, NET” value stood at 20% in [7] (1 mg/kg), 52% in experiment [7] (3 mg/kg), 86% in experiment [7] (10 mg/kg) and 98% in experiment [7] (30 mg/kg). For the same compound, the “Mean Specific Binding (dpm) ± S.E.M., NET” value was determined as 616 ± 50 dpm in experiment [7] (1 mg/kg), 368 ± 17 dpm in experiment [7] (3 mg/kg), 106 ± 20 dpm in experiment [7] (10 mg/kg) and 19 ± 2 dpm in experiment [7] (30 mg/kg). In addition, the figures for the “Rat Locomotor Activity Total Distance Traveled ± S.E.M.” value in experiment [9] (3 mg/kg), in [9] (10 mg/kg) and in experiment [9] (30 mg/kg) were 1227.9 ± 84.4, 1230.8 ± 64.8 and 1359.8 ± 132.7, respectively.

As to `Clc1ccc(C23CNCC2C3)cc1Cl` (single isomer, unassigned; (+)) [DOV 21,947, (+)-1-(3,4-dichlorophenyl)-3-azabicyclo[3.1.0]hexane], the “affinity for the serotonin uptake sites” value in experiment [11] is “significantly greater affinity”. In experiment [12], the “immobility in the tail suspension test” value is given as “dose-dependent reduction in immobility”.
